Measurements from ChEMBL document CHEMBL3431459, “Roche carnitine palmitoyltransferase modulator screening data (supplementary data associated with the publication CHEMBL2216752)”.
Converted amounts (≈) assume the structure as drawn.

Tests used:
[1] = molecular target: T1, Carnitine O-palmitoyltransferase 1, muscle isoform (Homo sapiens, UniProt Q92523); test: SUPPLEMENTARY: Inhibition of Carnitine palmitoyltransferase 1, muscle isoform; design: species or system Muscle tissue
T1 sequence (Q92523 whole entry): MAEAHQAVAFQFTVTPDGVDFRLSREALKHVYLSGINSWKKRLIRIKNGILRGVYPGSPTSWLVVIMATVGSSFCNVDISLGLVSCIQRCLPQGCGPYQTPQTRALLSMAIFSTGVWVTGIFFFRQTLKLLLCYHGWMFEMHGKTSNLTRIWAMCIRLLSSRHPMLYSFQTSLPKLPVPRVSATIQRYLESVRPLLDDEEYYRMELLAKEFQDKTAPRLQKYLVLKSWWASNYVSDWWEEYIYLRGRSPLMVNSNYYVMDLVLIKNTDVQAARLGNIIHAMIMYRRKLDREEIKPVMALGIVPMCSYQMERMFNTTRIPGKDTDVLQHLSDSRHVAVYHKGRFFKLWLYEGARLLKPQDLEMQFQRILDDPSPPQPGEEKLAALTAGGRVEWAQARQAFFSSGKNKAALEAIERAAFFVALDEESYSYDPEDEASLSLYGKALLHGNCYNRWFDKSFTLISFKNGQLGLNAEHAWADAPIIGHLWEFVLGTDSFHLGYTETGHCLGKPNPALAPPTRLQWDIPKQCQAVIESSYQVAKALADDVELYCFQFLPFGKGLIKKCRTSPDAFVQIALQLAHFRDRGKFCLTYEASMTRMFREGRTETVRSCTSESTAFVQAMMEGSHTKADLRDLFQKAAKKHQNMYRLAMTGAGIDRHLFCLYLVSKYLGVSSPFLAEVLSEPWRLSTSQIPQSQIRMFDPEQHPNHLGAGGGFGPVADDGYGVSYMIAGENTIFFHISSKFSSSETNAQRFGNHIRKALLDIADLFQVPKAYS

[2] = molecular target: T2, Carnitine O-palmitoyltransferase 2, mitochondrial (Homo sapiens, UniProt P23786); test: (§1) SUPPLEMENTARY: Inhibition of Carnitine palmitoyltransferase 2
T2 sequence (P23786 whole entry): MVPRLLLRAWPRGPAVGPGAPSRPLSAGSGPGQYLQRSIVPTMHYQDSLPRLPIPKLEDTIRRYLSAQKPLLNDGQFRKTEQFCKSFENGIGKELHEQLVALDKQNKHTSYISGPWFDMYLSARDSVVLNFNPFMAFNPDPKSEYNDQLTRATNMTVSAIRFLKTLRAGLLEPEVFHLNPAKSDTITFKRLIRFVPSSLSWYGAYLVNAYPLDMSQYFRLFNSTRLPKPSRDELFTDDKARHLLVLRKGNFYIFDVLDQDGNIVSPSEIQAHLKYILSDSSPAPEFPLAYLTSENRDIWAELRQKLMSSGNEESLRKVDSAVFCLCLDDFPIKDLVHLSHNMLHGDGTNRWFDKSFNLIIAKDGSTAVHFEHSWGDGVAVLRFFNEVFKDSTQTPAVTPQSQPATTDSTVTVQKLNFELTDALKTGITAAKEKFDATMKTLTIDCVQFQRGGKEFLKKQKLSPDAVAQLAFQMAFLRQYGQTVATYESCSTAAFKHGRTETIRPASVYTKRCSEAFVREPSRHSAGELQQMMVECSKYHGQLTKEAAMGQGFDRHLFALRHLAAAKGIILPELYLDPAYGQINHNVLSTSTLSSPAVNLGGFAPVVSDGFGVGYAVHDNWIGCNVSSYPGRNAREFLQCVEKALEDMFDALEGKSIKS

[3] = molecular target: T3, Carnitine O-palmitoyltransferase 2, mitochondrial (Rattus norvegicus, UniProt P18886); test: as §1
T3 sequence (P18886 whole entry): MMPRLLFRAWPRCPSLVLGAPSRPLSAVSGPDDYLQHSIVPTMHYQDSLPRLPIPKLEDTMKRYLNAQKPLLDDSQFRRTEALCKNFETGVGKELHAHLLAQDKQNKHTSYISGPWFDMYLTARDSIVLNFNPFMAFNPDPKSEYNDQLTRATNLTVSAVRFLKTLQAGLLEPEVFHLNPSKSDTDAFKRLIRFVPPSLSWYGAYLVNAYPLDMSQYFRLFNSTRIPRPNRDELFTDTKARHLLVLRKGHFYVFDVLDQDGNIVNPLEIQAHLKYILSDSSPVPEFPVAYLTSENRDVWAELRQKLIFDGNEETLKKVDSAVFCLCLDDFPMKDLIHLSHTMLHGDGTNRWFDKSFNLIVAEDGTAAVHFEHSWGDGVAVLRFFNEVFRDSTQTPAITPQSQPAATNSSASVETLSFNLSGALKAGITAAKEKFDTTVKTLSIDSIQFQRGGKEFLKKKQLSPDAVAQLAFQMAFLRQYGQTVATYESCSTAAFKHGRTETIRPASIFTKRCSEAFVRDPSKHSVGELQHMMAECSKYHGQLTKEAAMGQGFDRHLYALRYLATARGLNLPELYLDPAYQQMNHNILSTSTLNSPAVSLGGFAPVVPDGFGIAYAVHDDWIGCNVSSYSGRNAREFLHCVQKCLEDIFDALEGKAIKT

[4] = molecular target: T4, Carnitine O-palmitoyltransferase 1, liver isoform (Homo sapiens, UniProt P50416); test: (§2) SUPPLEMENTARY: Inhibition of Carnitine palmitoyltransferase 1, liver isoform
T4 sequence (P50416 whole entry): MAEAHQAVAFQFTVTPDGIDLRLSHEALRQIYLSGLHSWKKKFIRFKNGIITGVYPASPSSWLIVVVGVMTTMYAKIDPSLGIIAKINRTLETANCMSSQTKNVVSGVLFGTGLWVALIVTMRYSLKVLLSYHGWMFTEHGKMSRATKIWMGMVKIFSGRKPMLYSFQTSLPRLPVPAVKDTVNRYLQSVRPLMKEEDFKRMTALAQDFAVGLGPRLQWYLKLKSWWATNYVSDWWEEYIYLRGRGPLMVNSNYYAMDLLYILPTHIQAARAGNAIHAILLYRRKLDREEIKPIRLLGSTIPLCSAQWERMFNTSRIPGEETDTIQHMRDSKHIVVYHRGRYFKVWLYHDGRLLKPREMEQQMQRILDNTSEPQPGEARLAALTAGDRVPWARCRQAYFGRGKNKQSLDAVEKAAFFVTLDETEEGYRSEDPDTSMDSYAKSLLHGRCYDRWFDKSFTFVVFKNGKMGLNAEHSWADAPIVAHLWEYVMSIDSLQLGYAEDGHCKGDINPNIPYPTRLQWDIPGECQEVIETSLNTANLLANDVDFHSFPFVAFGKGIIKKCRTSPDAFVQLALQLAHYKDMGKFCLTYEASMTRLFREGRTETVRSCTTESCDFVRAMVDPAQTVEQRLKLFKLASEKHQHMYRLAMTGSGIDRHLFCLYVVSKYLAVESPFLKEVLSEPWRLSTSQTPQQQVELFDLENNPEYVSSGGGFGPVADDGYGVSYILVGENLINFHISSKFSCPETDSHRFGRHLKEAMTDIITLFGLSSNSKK

[5] = molecular target: T5, Carnitine O-palmitoyltransferase 1, liver isoform (Rattus norvegicus, UniProt P32198); test: as §2
T5 sequence (P32198 whole entry): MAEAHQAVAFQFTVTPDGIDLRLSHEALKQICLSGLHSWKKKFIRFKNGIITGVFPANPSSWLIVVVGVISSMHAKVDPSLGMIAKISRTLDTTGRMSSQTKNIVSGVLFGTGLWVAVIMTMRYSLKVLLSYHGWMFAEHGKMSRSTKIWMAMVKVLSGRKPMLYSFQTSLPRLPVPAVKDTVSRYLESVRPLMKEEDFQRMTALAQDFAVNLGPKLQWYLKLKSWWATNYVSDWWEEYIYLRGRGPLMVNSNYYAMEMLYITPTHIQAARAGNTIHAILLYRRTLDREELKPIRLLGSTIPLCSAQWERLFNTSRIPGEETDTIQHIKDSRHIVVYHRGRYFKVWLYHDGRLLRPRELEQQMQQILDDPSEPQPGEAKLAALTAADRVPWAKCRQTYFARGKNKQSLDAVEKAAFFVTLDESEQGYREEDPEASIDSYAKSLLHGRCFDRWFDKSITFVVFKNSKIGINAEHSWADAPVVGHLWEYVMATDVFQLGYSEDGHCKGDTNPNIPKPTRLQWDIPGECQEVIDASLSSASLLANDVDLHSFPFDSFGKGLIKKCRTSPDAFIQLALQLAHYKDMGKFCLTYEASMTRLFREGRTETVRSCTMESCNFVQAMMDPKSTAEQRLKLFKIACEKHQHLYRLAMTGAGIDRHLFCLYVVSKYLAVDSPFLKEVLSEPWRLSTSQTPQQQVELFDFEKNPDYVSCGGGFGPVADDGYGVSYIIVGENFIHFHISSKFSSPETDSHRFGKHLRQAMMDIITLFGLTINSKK

[6] = SUPPLEMENTARY: Lyophilisation Solubility Assay (LYSA); type: physicochemical; conditions: read-out: Kinetic_solubility
[7] = SUPPLEMENTARY: Lipophilicity (log D) Determination by high-throughput shake-flask; type: physicochemical; conditions: octanol/water
[8] = SUPPLEMENTARY: PAMPA permeability assay; type: physicochemical; conditions: read-out: Permeability

| IC50 [1] [nM] | IC50 [2] [nM] | IC50 [3] [nM] | IC50 [4] [nM] | IC50 [5] [nM] | solubility kinetic [6] [µg/mL] | logD [7] | Papp [8] [×10⁻⁶ cm/s] | Compound |
| --- | --- | --- | --- | --- | --- | --- | --- | --- |
| > 100000 | > 100000 | > 100000 | 190 | 228 | 11 (≈ 27.6 µM) | > 3 | 0.962 | O=C(COc1ccccc1)N1CCCC[C@@H]1c1nc(-c2ccc(Cl)cc2)no1 |
| > 100000 | 49700 | 78300 | 108 | 475 | 50 (≈ 119 µM) | 3.14 | 2.71 | CC(=O)Nc1ccc(-n2nnc([C@H]3CCCCN3C(=O)COc3ccccc3)n2)cc1 |
| 3830 | 2460 | 3350 | 90.2 | 65.1 | 16 (≈ 30.4 µM) | 2.67 | 1.89 | O=C(Nc1ccc(C(=O)O)c(Cl)c1)c1ccc2c(c1)N(S(=O)(=O)c1cc(Cl)cc(Cl)c1)CC2 |
| 35900 | 312 | 2010 | 78.2 | 79.4 | 13 (≈ 25.8 µM) | 1.32 | 1.85 | COc1ccc(Cl)cc1S(=O)(=O)N1COc2c(C)cc(C(=O)Nc3ccc(C(=O)O)cc3)cc21 |
| > 100000 | 39800 | 42900 | 211 | 1150 | 73 (≈ 175 µM) | 2.35 | 3.29 | O=C1Cc2ccc(-c3n[nH]c([C@H]4CCCCN4C(=O)COc4ccccc4)n3)cc2N1 |
| > 100000 | 17400 | > 100000 | 188 | 305 | 82 (≈ 197 µM) | 2.52 | 4.52 | O=C(COc1ccccc1)N1CCCC[C@@H]1c1noc(-c2ccc3cnccc3n2)n1 |
| 820 | 38300 | > 100000 | 163 | 374 | 109 (≈ 192 µM) | 2.84 | 3.53 | COc1ccc(Cl)cc1S(=O)(=O)N(c1cc(C(=O)Nc2ncc(CC(=O)O)s2)cc2c1OCO2)C(C)C |
| > 100000 | 12100 | 18300 | 96.4 | 663 | 10 (≈ 22.4 µM) | 2.79 | 5.55 | NC(=O)c1cn2ccc(-c3noc([C@H]4CCCCN4C(=O)COc4ccccc4)n3)cc2n1 |
| > 100000 | > 100000 | > 100000 | 168 | 1250 | 191 (≈ 467 µM) | 1.05 | 2.86 | NC(=O)c1cncc(-c2noc([C@H]3COCCN3C(=O)COc3ccccc3)n2)c1 |
| 53100 | 25700 | > 100000 | 86.1 | 139 | 13 (≈ 26 µM) | 0.49 | 2.25 | O=C(O)c1ccc(NC(=O)c2ccc(Cl)c(NS(=O)(=O)c3cc(Cl)cc(Cl)c3)c2)cc1 |
| 3680 | 286 | 684 | 71 | 96.2 | 60 (≈ 116 µM) | 0.77 | 1.65 | COc1ccc(Cl)cc1S(=O)(=O)N1CCc2c(C)cc(C(=O)Nc3ccc(C(=O)O)c(F)c3)cc21 |
| 920 | 1500 | 2500 | 18.8 | 11.2 | 3 (≈ 6.4 µM) | 2.54 | 1.01 | Cn1cc(S(=O)(=O)c2cccc(Cl)c2)c2cc(C(=O)Nc3ccc(C(=O)O)cc3)ccc21 |

| Compound | IC50 [1] [nM] | IC50 [2] [nM] | IC50 [3] [nM] | IC50 [4] [nM] | IC50 [5] [nM] | solubility kinetic [6] [µg/mL] | logD [7] | Papp [8] [×10⁻⁶ cm/s] |
| --- | --- | --- | --- | --- | --- | --- | --- | --- |
| O=C(Nc1ccc(-c2nnn[nH]2)cc1)c1nn(Cc2ccc(OC(F)F)cc2)c2ccc(F)cc12 | 26800 | > 100000 | > 100000 | 210 | 2870 | 1 (≈ 2.09 µM) | > 3 | 0.46 |
| CN1CCN(C(=O)COc2ccccc2)[C@@H](c2nc(-c3cccc(C(F)(F)F)c3)n[nH]2)C1 | > 100000 | 94600 | > 100000 | 37 | 54.7 | 81 (≈ 182 µM) | 3.19 | 2.31 |
